How the values were obtained:
UCD patients [1] = conditions: 4 patients aged 2 months to 2 years; cited from earlier work
UCD patients [2] = test: HPN-100-009 (Example 2): growth and development, BMI and BSA Z-scores; type: in vivo, human; conditions: Age 2 Months to <2 Years
Description: Assessment of Growth and Development: Baseline and Change from Baseline in Body Mass Index (BMI) Z-Score and Body Surface Area (BSA) Z-Score Up to Month 9.
End point description. To assess any effect of study drug treatment on growth, Z-scores were calculated to express the deviation from a reference population for BMI and BSA. The BMI Z-scores are based on the World Health Organization's Child Growth Standards charts. The BSA Z-Scores are based on weight-for-length charts. Negative Z-scores indicate lower than typical for age and gender while positive scores indicate higher than typical for age and gender. […] End point timeframe: Baseline, Day 7, Month 2, Month 3, Month 4, Month 5, Month 6, Month 9.

[3] = HPN-100-009 (Example 2): plasma PBA, PAA, PAGN PK on first full day of RAVICTI dosing; type: in vivo, human; conditions: Age 2 Months to <2 Years, mean (SD)
Source text: Plasma Phenylbutyrate/Phenylbutyric Acid (PB A) 1) Maximum Plasma Concentration (Cmax); 2) Minimum Plasma Concentration (Cmin); 3) Area Under the Curve from Time Zero to the Time of Last Quantifiable Concentration (AUC[0-Last]); and 4) Time to Cmax (Tmax) on the First Full Day of RAVICTI® Dosing.
(§1) End point description. Pharmacokinetic (PK) Evaluable Population: all subjects from the safety population with individual concentration-time profiles that allow computation of meaningful PK parameter values. End point timeframe: Hour 0 and between 4 and 6 hours, 8 hours, and between 12 and 24 hours after the first dose of the day on Day 1 for stable subjects and on Day 2 for subjects in HAC.
Plasma Phenylacetate/Phenylacetic Acid (PAA) 1) Maximum Plasma Concentration (Cmax); 2) Minimum Plasma Concentration (Cmin); 3) Area Under the Curve from Time Zero to the Time of Last Quantifiable Concentration (AUC[0-Last]); and 4) Time to Cmax (Tmax) on the First Full Day of RAVICTI® Dosing.
as §1, with “PK” for “Pharmacokinetic (PK)”
Plasma Phenylacetylglutamine (PAGN) 1) Maximum Plasma Concentration (Cmax); 2) Minimum Plasma Concentration (Cmin); 3) Area Under the Curve from Time Zero to the Time of Last Quantifiable Concentration (AUC[0-Last]); and 4) Time to Cmax (Tmax) on the First Full Day of RAVICTI® Dosing.

UCD patients [4] = test: HPN-100-009 (Example 2): treatment-emergent, serious and non-serious adverse events; type: in vivo, human; conditions: Age 2 Months to <2 Years
Source text: Number of Subjects with Treatment-Emergent Adverse Events (TEAEs), Serious TEAEs, Deaths, and Discontinuations Due to TEAEs.
End point description. An adverse event (AE) was any untoward medical occurrence, whether or not the event is considered related to the study drug. […] TEAEs were defined as AEs with an onset date on or after the first dose of study medication until study discontinuation. The Investigator assessed the causal relationship of each TEAE to the study drug as not related, possibly related, or probably related. Safety population: all enrolled subjects who received any amount of study medication. End point timeframe: up to 370 days.
Adverse Events Information.
Timeframe for reporting adverse events: From first dose of study treatment up to 370 days (data cutoff); median (full range) duration of treatment was 4.68 (0.2 to 10.9) months. Adverse event reporting additional description: TEAEs (defined as AEs with an onset date on or after the first dose of study medication until study discontinuation) are presented.

[5] = test system: pediatric patients with UCDs; test: HPN-100-012 switch-over study: 24-hour blood ammonia on HPN-100 vs NaPBA; type: in vivo, human
Source text: HPN-100-012 was an open-label, fixed sequence, switch-over study of the safety, PK and efficacy of HPN-100 compared to NaPBA in patients with UCDs, with a 12-month safety extension part. […] After review of all the safety data by the DSMB, 8 additional subjects were enrolled in the study after the switch-over phase was completed.

[6] = original scale, non-inferiority upper margin 1.25

O=C(CCCc1ccccc1)OCC(COC(=O)CCCc1ccccc1)OC(=O)CCCc1ccccc1 [RAVICTI, benzenebutanoic acid, 1′,1″-(1,2,3-propanetriyl) ester]
PAA exposure, 24-hour area under the curve, vs NaPBA (UCD patients [1]): very similar
mean ammonia exposure, 24-hour area under the curve, vs NaPBA (UCD patients [1]): non-inferior
BMI Z-Score baseline (UCD patients [2]): 0.795
BMI Z-score, Change from Baseline at Day 7 (UCD patients [2]): -0.211
BMI Z-score, Change from Baseline at Month 2 (UCD patients [2]): 0.0021
BMI Z-score, Change from Baseline at Month 3 (UCD patients [2]): 0.213
BMI Z-score, Change from Baseline at Month 4 (UCD patients [2]): 0.47
BMI Z-score, Change from Baseline at Month 5 (UCD patients [2]): 0.164
BMI Z-score, Change from Baseline at Month 6 (UCD patients [2]): 0.469
BSA Z-Score baseline (UCD patients [2]): 0.686
BSA Z-score, Change from Baseline at Day 7 (UCD patients [2]): -0.185
BSA Z-score, Change from Baseline at Month 2 (UCD patients [2]): -0.0437
BSA Z-score, Change from Baseline at Month 3 (UCD patients [2]): 0.119
BSA Z-score, Change from Baseline at Month 4 (UCD patients [2]): 0.381
BSA Z-score, Change from Baseline at Month 5 (UCD patients [2]): 0.198
BSA Z-score, Change from Baseline at Month 6 (UCD patients [2]): 0.398
Plasma PAA AUC[0-last] [3]: 246.126 (±238.547) (μg * hr/mL)
Plasma PAA Cmax [3]: 36.52 (±31.784) (μg/mL)
Plasma PAA Cmin [3]: 4.197 (±6.434) (μg/mL)
Plasma PAA Tmax [3]: 7.422 (±7.351) (hrs)
Plasma PAGN AUC[0-last] [3]: 583.835 (±285.241) (μg * hr/mL)
Plasma PAGN Cmax [3]: 62.45 (±27.281) (μg/mL)
Plasma PAGN Cmin [3]: 20.62 (±14.529) (μg/mL)
Plasma PAGN Tmax [3]: 6.573 (±7.181) (hrs)
Plasma PBA AUC[0-last] [3]: 280.936 (±293.553) (μg * hr/mL)
Plasma PBA Cmax [3]: 42.44 (±36.715) (μg/mL)
Plasma PBA Cmin [3]: 1.697 (±2.254) (μg/mL)
Plasma PBA Tmax [3]: 8.383 (±4.564) (hrs)
Non-serious AE Anaemia: Occurrences (All) (UCD patients [4]): 1
Non-serious AE Apnoeic Attack: Occurrences (All) (UCD patients [4]): 1
Non-serious AE Cough: Occurrences (All) (UCD patients [4]): 1
Non-serious AE Deep Vein Thrombosis: Occurrences (All) (UCD patients [4]): 1
Non-serious AE Diarrhoea: Occurrences (All) (UCD patients [4]): 1
Non-serious AE Gross Motor Delay: Occurrences (All) (UCD patients [4]): 1
Non-serious AE Hypophagia: Occurrences (All) (UCD patients [4]): 1
Non-serious AE Infections (Gastroenteritis): Occurrences (All) (UCD patients [4]): 1
Non-serious AE Infections (Nasopharyngitis): Occurrences (All) (UCD patients [4]): 1
Non-serious AE Infections (Upper Respiratory Tract): Occurrences (All) (UCD patients [4]): 4
Non-serious AE Infections (Urinary Tract): Occurrences (All) (UCD patients [4]): 1
Non-serious AE Infections (Viral): Occurrences (All) (UCD patients [4]): 1
Non-serious AE Metabolic Acidosis: Occurrences (All) (UCD patients [4]): 1
Non-serious AE Nail Ridging: Occurrences (All) (UCD patients [4]): 1
Non-serious AE Rash: Occurrences (All) (UCD patients [4]): 2
Non-serious AE Rhinorrhoea: Occurrences (All) (UCD patients [4]): 1
Non-serious AE Stoma Site Reaction: Occurrences (All) (UCD patients [4]): 1
Non-serious AE Teething: Occurrences (All) (UCD patients [4]): 1
Non-serious AE Tibia Fracture: Occurrences (All) (UCD patients [4]): 1
Non-serious AE Vesicoureteric Reflux: Occurrences (All) (UCD patients [4]): 1
Non-serious AE Vomiting: Occurrences (All) (UCD patients [4]): 3
Number of Deaths (All Causes) (UCD patients [4]): 1
Serious AE Apnoeic Attack: Deaths Causally Related to Treatment/All (UCD patients [4]): 0/0
Serious AE Apnoeic Attack: Occurrences Causally Related to Treatment/All (UCD patients [4]): 0/2
Serious AE Hyperammonaemia: Deaths Causally Related to Treatment/All (UCD patients [4]): 0/0
Serious AE Hyperammonaemia: Occurrences Causally Related to Treatment/All (UCD patients [4]): 0/8
Serious AE Infections (Croup): Deaths Causally Related to Treatment/All (UCD patients [4]): 0/0
Serious AE Infections (Croup): Occurrences Causally Related to Treatment/All (UCD patients [4]): 0/1
Serious AE Infections (Gastroenteritis): Deaths Causally Related to Treatment/All (UCD patients [4]): 0/0
Serious AE Infections (Gastroenteritis): Occurrences Causally Related to Treatment/All (UCD patients [4]): 0/1
Serious AE Infections (Urinary Tract): Deaths Causally Related to Treatment/All (UCD patients [4]): 0/0
Serious AE Infections (Urinary Tract): Occurrences Causally Related to Treatment/All (UCD patients [4]): 0/1
Serious AE Infections (Viral): Deaths Causally Related to Treatment/All (UCD patients [4]): 0/0
Serious AE Infections (Viral): Occurrences Causally Related to Treatment/All (UCD patients [4]): 0/1
Serious AE Pneumatosis: Deaths Causally Related to Treatment/All (UCD patients [4]): 0/1
Serious AE Pneumatosis: Occurrences Causally Related to Treatment/All (UCD patients [4]): 0/1
Subjects with fatal outcome TEAE (UCD patients [4]; 10 analyzed, up to 370 days): 1 Subjects
Subjects with ≥1 Related TEAE (UCD patients [4]; 10 analyzed, up to 370 days): 4 Subjects
Subjects with ≥1 Serious Related TEAE (UCD patients [4]; 10 analyzed, up to 370 days): 0 Subjects
Subjects with ≥1 Serious TEAE (UCD patients [4]; 10 analyzed, up to 370 days): 6 Subjects
Subjects with ≥1 TEAE (UCD patients [4]; 10 analyzed, up to 370 days): 10 Subjects
Subjects with ≥1 TEAE Leading to Study Discontinuation (UCD patients [4]; 10 analyzed, up to 370 days): 1 Subjects
Mean blood ammonia ([5]; 8-h time point, HPN-100 Day 10): 23.20 µmol/L
Mean blood ammonia ([5]; 12-hour time point, HPN-100 Day 10, NaPBA Day 1): 28.24 µmol/L
upper 90% CI, blood ammonia 24-hour AUC HPN-100 vs NaPBA [5, 6]: 1.002
upper 95% CI, blood ammonia 24-hour AUC HPN-100 vs NaPBA [5, 6]: 1.055
median difference between treatments in ammonia AUC (HPN-100 vs NaPBA) ([5]; pediatric UCD patients 29 days to <6 years): -37.84 µmol·h/L
24-hour AUC for blood ammonia, HPN-100 (Day 10) compared with NaPBA (Day 1) ([5]; pediatric UCD patients 29 days to <6 years, non-inferiority upper margin 1.25): non-inferior to NaPBA
Mean blood ammonia levels following an overnight fast ([5]; pre-dose and 24 hours post dose): normal
